According to ChEMBL document CHEMBL1201862, “PubChem BioAssay data set” (2004):
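Each compound was tested at five concentrations against cells in 96-well plates for 48 hours. GI50 = concentration required for 50% inhibition of growth.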 The source made the active and inactive calls. Cut-off read from the data, not from the text of the source: active = GI50 up to about 1.1 µM and inactive = higher.

How the values were obtained:
Assay in all cases: inhibition of tumour cell growth, NCI panel, 48 h
A549 = system: A549
CCRF-CEM = system: CCRF-CEM
COLO 205 = system: COLO 205
HL-60 = system: HL-60
HOP-62 = system: HOP-62
Hs-578T = system: Hs-578T
IGROV-1 = system: IGROV-1
KM12 = system: KM12
MDA-MB-435 = system: MDA-MB-435
NCI-H23 = system: NCI-H23
OVCAR-3 = system: OVCAR-3
OVCAR-4 = system: OVCAR-4
OVCAR-8 = system: OVCAR-8
SF-268 = system: SF-268
SK-MEL-28 = system: SK-MEL-28
SN12C = system: SN12C
T47D = system: T47D
UACC-62 = system: UACC-62
A498 = system: A498
LOX IMVI = system: LOX IMVI

SMILES	GI50 (A549)	GI50 (CCRF-CEM)	GI50 (COLO 205)	GI50 (HL-60)	GI50 (HOP-62)	GI50 (Hs-578T)	GI50 (IGROV-1)	GI50 (KM12)	GI50 (MDA-MB-435)	GI50 (NCI-H23)	GI50 (OVCAR-3)	GI50 (OVCAR-4)	GI50 (OVCAR-8)	GI50 (SF-268)	GI50 (SK-MEL-28)	GI50 (SN12C)	GI50 (T47D)	GI50 (UACC-62)	GI50 (A498)	GI50 (LOX IMVI)
O=C1/C(=C/c2ccc([N+](=O)[O-])cc2)Oc2cc(O)ccc21	28.8 µM (inactive)	31 µM (inactive)	> 10 µM (inactive)	17.5 µM (inactive)	31.2 µM (inactive)	17.1 µM (inactive)	29.1 µM (inactive)	36.5 µM (inactive)	30.5 µM (inactive)	42.1 µM (inactive)	27.5 µM (inactive)	39.6 µM (inactive)	29.6 µM (inactive)	61 µM (inactive)	41 µM (inactive)	26.6 µM (inactive)	28.6 µM (inactive)	33 µM (inactive)	–	–
CSc1ncnc2c1cnn2Cc1cn(CCCCO)nn1	> 100 µM (inactive)	> 100 µM (inactive)	> 100 µM (inactive)	–	> 100 µM (inactive)	71.1 µM (inactive)	> 100 µM (inactive)	> 100 µM (inactive)	> 100 µM (inactive)	> 100 µM (inactive)	> 100 µM (inactive)	> 100 µM (inactive)	> 100 µM (inactive)	> 100 µM (inactive)	> 100 µM (inactive)	> 100 µM (inactive)	> 100 µM (inactive)	> 100 µM (inactive)	> 100 µM (inactive)	> 100 µM (inactive)
O=C(c1ccccc1)c1ccc2[nH]c(-c3c(Cl)c(Cl)c(Cl)c(Cl)c3C(=O)N/N=C/c3ccc(Cl)cc3)nc2c1	33 µM (inactive)	18.3 µM (inactive)	28.1 µM (inactive)	4.06 µM (inactive)	31.7 µM (inactive)	57.9 µM (inactive)	33 µM (inactive)	48.4 µM (inactive)	32.8 µM (inactive)	30.1 µM (inactive)	17.5 µM (inactive)	30.3 µM (inactive)	51.8 µM (inactive)	40.7 µM (inactive)	33 µM (inactive)	39.2 µM (inactive)	18.3 µM (inactive)	–	–	34 µM (inactive)
CSc1nn(C)cc2nc(C)nc1-2	> 100 µM (inactive)	> 100 µM (inactive)	> 100 µM (inactive)	> 100 µM (inactive)	> 100 µM (inactive)	> 100 µM (inactive)	> 100 µM (inactive)	> 100 µM (inactive)	> 100 µM (inactive)	> 100 µM (inactive)	> 100 µM (inactive)	–	> 100 µM (inactive)	> 100 µM (inactive)	> 100 µM (inactive)	> 100 µM (inactive)	> 100 µM (inactive)	> 100 µM (inactive)	> 100 µM (inactive)	–
CC1(C)/C(=N\NC(N)=O)C2CCC1C2 (stereo not given)	> 100 µM (inactive)	> 100 µM (inactive)	> 100 µM (inactive)	> 100 µM (inactive)	> 100 µM (inactive)	> 100 µM (inactive)	> 100 µM (inactive)	> 100 µM (inactive)	> 100 µM (inactive)	> 100 µM (inactive)	> 100 µM (inactive)	> 100 µM (inactive)	> 100 µM (inactive)	> 100 µM (inactive)	> 100 µM (inactive)	–	> 100 µM (inactive)	> 100 µM (inactive)	–	> 100 µM (inactive)
CCCCCCCCCCCCCCCCOP(=O)(O)OCC(N)C(=O)O (stereo not given)	21.9 µM (inactive)	22.8 µM (inactive)	20.7 µM (inactive)	–	25 µM (inactive)	16.1 µM (inactive)	18.4 µM (inactive)	12.6 µM (inactive)	22.5 µM (inactive)	27 µM (inactive)	17.4 µM (inactive)	18.7 µM (inactive)	25.4 µM (inactive)	18.5 µM (inactive)	43.1 µM (inactive)	18.3 µM (inactive)	28.2 µM (inactive)	18 µM (inactive)	19.8 µM (inactive)	13.5 µM (inactive)
Cc1[nH]c2ncn3ncnc3c2c1Cc1ccccc1	> 100 µM (inactive)	> 100 µM (inactive)	> 100 µM (inactive)	> 100 µM (inactive)	> 100 µM (inactive)	> 100 µM (inactive)	92.7 µM (inactive)	> 100 µM (inactive)	> 100 µM (inactive)	91.6 µM (inactive)	> 100 µM (inactive)	> 100 µM (inactive)	> 100 µM (inactive)	> 100 µM (inactive)	> 100 µM (inactive)	> 100 µM (inactive)	> 100 µM (inactive)	> 100 µM (inactive)	> 100 µM (inactive)	–
O=C(Nc1ccc(N=C=S)cc1Cl)c1cc(Br)cc(Br)c1O	25.8 µM (inactive)	–	27.2 µM (inactive)	34.5 µM (inactive)	30.6 µM (inactive)	25.6 µM (inactive)	19.4 µM (inactive)	27 µM (inactive)	28.1 µM (inactive)	26.7 µM (inactive)	36.7 µM (inactive)	27.1 µM (inactive)	18.2 µM (inactive)	36.9 µM (inactive)	30.4 µM (inactive)	< 0.01 µM (active)	39.7 µM (inactive)	18.9 µM (inactive)	–	–
Cc1ccc(N/N=C/C2=CC(C)(C)C(C#N)(C#N)C(O)=C2C#N)cc1	36.5 µM (inactive)	24.5 µM (inactive)	26.9 µM (inactive)	17.3 µM (inactive)	78.3 µM (inactive)	> 100 µM (inactive)	21 µM (inactive)	32.4 µM (inactive)	62.5 µM (inactive)	39.4 µM (inactive)	36.6 µM (inactive)	96.8 µM (inactive)	38.4 µM (inactive)	49 µM (inactive)	85.5 µM (inactive)	> 100 µM (inactive)	67.3 µM (inactive)	30.4 µM (inactive)	–	65.8 µM (inactive)
CCNC(=S)NNC(=O)c1ccccc1Nc1ccccc1C(=O)NNC(=S)NCC	> 100 µM (inactive)	> 100 µM (inactive)	> 100 µM (inactive)	> 100 µM (inactive)	> 100 µM (inactive)	> 100 µM (inactive)	> 100 µM (inactive)	> 100 µM (inactive)	> 100 µM (inactive)	> 100 µM (inactive)	> 100 µM (inactive)	> 100 µM (inactive)	> 100 µM (inactive)	–	> 100 µM (inactive)	> 100 µM (inactive)	> 100 µM (inactive)	> 100 µM (inactive)	–	> 100 µM (inactive)
CCOC(=O)c1cc(C)nc2c1c(=O)n(-c1ccccc1)c(=O)n2CCCCN1CCN(c2ccccc2)CC1	> 100 µM (inactive)	–	60 µM (inactive)	27 µM (inactive)	> 100 µM (inactive)	> 100 µM (inactive)	> 100 µM (inactive)	61.8 µM (inactive)	> 100 µM (inactive)	77.3 µM (inactive)	–	34 µM (inactive)	> 100 µM (inactive)	> 100 µM (inactive)	> 100 µM (inactive)	49.9 µM (inactive)	24.3 µM (inactive)	70.3 µM (inactive)	27.6 µM (inactive)	61.1 µM (inactive)
CC(=O)OCC1OC(n2c(C)c(/N=N/c3ccc(Cl)cc3)c(C)c(C#N)c2=S)C(OC(C)=O)C(OC(C)=O)C1OC(C)=O (stereo not given)	64.4 µM (inactive)	> 100 µM (inactive)	> 100 µM (inactive)	> 100 µM (inactive)	22.8 µM (inactive)	21.5 µM (inactive)	41.8 µM (inactive)	> 100 µM (inactive)	> 100 µM (inactive)	> 100 µM (inactive)	> 100 µM (inactive)	> 100 µM (inactive)	–	27.9 µM (inactive)	> 100 µM (inactive)	> 100 µM (inactive)	> 100 µM (inactive)	38.4 µM (inactive)	–	86.3 µM (inactive)
Clc1ccc2c(NCCCC/N=C/c3ccccc3)ccnc2c1	13.4 µM (inactive)	6.49 µM (inactive)	4.53 µM (inactive)	–	10 µM (inactive)	11.6 µM (inactive)	11.8 µM (inactive)	7.98 µM (inactive)	12.6 µM (inactive)	11 µM (inactive)	16.5 µM (inactive)	10.5 µM (inactive)	11.2 µM (inactive)	14.2 µM (inactive)	15 µM (inactive)	5.69 µM (inactive)	12.6 µM (inactive)	–	3.01 µM (inactive)	13.5 µM (inactive)
CC(C)C(=O)/C=C/S/C=C/C(=O)C(C)C	32.3 µM (inactive)	–	2.94 µM (inactive)	–	21.2 µM (inactive)	21.6 µM (inactive)	19.5 µM (inactive)	30.3 µM (inactive)	10.4 µM (inactive)	2.59 µM (inactive)	3.62 µM (inactive)	6.17 µM (inactive)	2.7 µM (inactive)	26.2 µM (inactive)	4.28 µM (inactive)	14.2 µM (inactive)	5.16 µM (inactive)	9.46 µM (inactive)	–	3.31 µM (inactive)
C[C@]12CC[C@@H]3c4cc(I)c(O)cc4CC[C@H]3[C@@H]1CC[C@@H]2O	6.32 µM (inactive)	3.15 µM (inactive)	18.5 µM (inactive)	5.65 µM (inactive)	–	2.32 µM (inactive)	5.93 µM (inactive)	3.27 µM (inactive)	–	9.89 µM (inactive)	3.43 µM (inactive)	16.5 µM (inactive)	6.52 µM (inactive)	9.38 µM (inactive)	7.96 µM (inactive)	–	8.55 µM (inactive)	–	8.43 µM (inactive)	4.17 µM (inactive)
